In brackets after ≈: the same amount, converted by molar mass. Read-outs that look alike come from different tables or passages of the source.
How the values were obtained:
ENTEROCOCCUS = assay: Plate dilution antimicrobial susceptibility, Enterococcus; details: for MIC: 24 h
Description: (§1) Tryptone soy agar (oxoid) of the following composition is the culture medium.
(§2) A series of plates with these concentrations is prepared. Ten percent horse serum is added to one series of such plates. Aliquots of broth culture of any of twelve species of microorganisms are innoculated onto the agar plates contaning the various compound concentrations. The plates are incubated at 37° C. in a 10 percent carbon dioxide atmosphere for 18 to 24 hours. The microbial growth on each plate is read visually, and minimal inhibitory concentrations are recorded.
(§3) The tests were run both in the absence and in the presence of horse serum as described hereinabove.

Pseudomonas aeruginosa = assay: Plate dilution antimicrobial susceptibility, Pseudomonas aeruginosa; details: for MIC: 24 h, read-out: Minimum Inhibitory Concentration
Description: as §1, §2, §3

Escherichia coli = assay: Plate dilution antimicrobial susceptibility, Escherichia coli; details: for MIC: 24 h, read-out: Minimum Inhibitory Concentration
Description: as §1, §2, §3

Staphylococcus aureus = assay: Plate dilution antimicrobial susceptibility, Staphylococcus aureus; details: for MIC: 24 h, read-out: Minimum Inhibitory Concentration
Description: as §1, §2, §3

Klebsiella pneumoniae = assay: Plate dilution antimicrobial susceptibility, Klebsiella pneumoniae; details: for MIC: 24 h, read-out: Minimum Inhibitory Concentration
Description: as §1, §2, §3

STREP. SPECIES = assay: Plate dilution antimicrobial susceptibility, Strep. species; details: for MIC: 24 h, read-out: Minimum Inhibitory Concentration, Strep. species; for Minimum Inhibitory Concentration: Strep. species
Description: as §1, §2, §3

[1] = system: gram-positive and gram-negative microorganisms; assay: Plate dilution method, antimicrobial activity in general (gram-positive and gram-negative microorganisms); format: cell-based; details: in vitro
[2] = presence of 10 percent horse serum
[3] = read-out: Minimum Inhibitory Concentration, Enterococcus, absence of horse serum
[4] = read-out: Minimum Inhibitory Concentration, Enterococcus, presence of 10 percent horse serum

Row | SMILES | Minimum Inhibitory Concentration (ENTEROCOCCUS; [2]) | Minimum Inhibitory Concentration (Pseudomonas aeruginosa; [2]) | Minimum Inhibitory Concentration (Escherichia coli; [2]) | Minimum Inhibitory Concentration (Staphylococcus aureus; [2]) | Minimum Inhibitory Concentration (Klebsiella pneumoniae; [2]) | Minimum Inhibitory Concentration (Klebsiella pneumoniae; absence of horse serum) | Minimum Inhibitory Concentration (ENTEROCOCCUS; absence of horse serum) | Minimum Inhibitory Concentration (Pseudomonas aeruginosa; absence of horse serum) | Minimum Inhibitory Concentration (STREP. SPECIES; absence of horse serum) | Minimum Inhibitory Concentration (STREP. SPECIES; [2]) | Minimum Inhibitory Concentration (Escherichia coli; absence of horse serum) | Minimum Inhibitory Concentration (Staphylococcus aureus; absence of horse serum) | also measured
1 | CC1CCc2c(Br)c(F)cc3c(=O)c(C(=O)[O-])cn1c23.[Na+] (stereo not shown) [8-Br, 9-F sodium salt, sodium 8-bromo-6,7-dihydro-9-fluoro-5-methyl-1-oxo-1H,5H-benzo[ij]quinolizine-2-carboxylate] | 1 mg/L | 10 mg/L | .1 mg/L | .1 mg/L | – | – | – | – | – | – | – | – | –
2 | CC1CCc2c(Br)c(F)cc3c(=O)c(C(=O)O)cn1c23 (stereo not shown) [8-Br, 9-F, 8-bromo-6,7-dihydro-9-fluoro-5-methyl-1-oxo-1H,5H-benzo[ij]quinolizine-2-carboxylic acid] | – | 10 mg/L | .1 mg/L | .1 mg/L | 1 mg/L | – | – | – | – | – | – | – | MIC (Klebsiella pneumoniae): 1 µg/mL (≈ 2.94 µM); MIC (ENTEROCOCCUS; [3]): 1 µg/mL (≈ 2.94 µM); MIC (ENTEROCOCCUS; [4]): 1 µg/mL; MIC (Pseudomonas aeruginosa): 10 µg/mL (≈ 29.4 µM); MIC (STREP. SPECIES; absence of horse serum): 1 µg/mL (≈ 2.94 µM); MIC (STREP. SPECIES; [2]): 10 µg/mL; MIC (Escherichia coli): 0.1 µg/mL (≈ 0.294 µM); MIC (Staphylococcus aureus): 0.1 µg/mL (≈ 0.294 µM)
3 | Cc1cc2c(=O)c(C(=O)O)cn3c2c(c1Cl)CCC3C (stereo not shown) [8-Cl, 9-CH3] | I | I | 10 mg/L | 100 mg/L | 100 mg/L | 100 mg/L | 100 mg/L | 100 mg/L | 100 mg/L | 100 mg/L | 10 mg/L | 10 mg/L | –
4 | CC1CCc2c(Cl)c(F)cc3c(=O)c(C(=O)[O-])cn1c23.[Na+] (stereo not shown) [8-Cl, 9-F sodium salt, sodium 8-chloro-6,7-dihydro-9-fluoro-5-methyl-1-oxo-1H,5H-benzo[ij]quinolizine-2-carboxylate] | 1 mg/L | 10 mg/L | – | – | 1 mg/L | – | – | – | – | – | – | – | –
5 | CC1CCc2c(Cl)c(F)cc3c(=O)c(C(=O)O)cn1c23 (stereo not shown) [8-Cl, 9-F, 8-chloro-6,7-dihydro-9-fluoro-5-methyl-1-oxo-1H,5H-benzo[ij]quinolizine-2-carboxylic acid] | – | 10 mg/L | .1 mg/L | – | 1 mg/L | – | – | – | – | – | – | – | MIC (Klebsiella pneumoniae): 1 µg/mL (≈ 3.38 µM); MIC (ENTEROCOCCUS; [3]): 1 µg/mL (≈ 3.38 µM); MIC (ENTEROCOCCUS; [4]): 10 µg/mL; MIC (Pseudomonas aeruginosa): 10 µg/mL (≈ 33.8 µM); MIC (STREP. SPECIES; [2]): 10 µg/mL; MIC (Escherichia coli): 0.1 µg/mL (≈ 0.338 µM); MIC (Staphylococcus aureus): 0.1 µg/mL (≈ 0.338 µM)
6 | COc1cc2c(=O)c(C(=O)O)cn3c2c(c1Cl)CCC3C (stereo not shown) [8-Cl, 9-OCH3] | 100 mg/L | I | 10 mg/L | 10 mg/L | 100 mg/L | 100 mg/L | 100 mg/L | I | 100 mg/L | 100 mg/L | 10 mg/L | 10 mg/L | –
7 | CC1CCc2c(N)c(Cl)cc3c(=O)c(C(=O)O)cn1c23 (stereo not shown) [8-NH2,9-Cl] | I | I | 10 mg/L | 100 mg/L | 100 mg/L | 100 mg/L | I | I | I | I | 10 mg/L | 100 mg/L | –
8 | CC(=O)Nc1c(Cl)cc2c(=O)c(C(=O)O)cn3c2c1CCC3C (stereo not shown) [8-NHCOCH3, 9-Cl] | I | I | 10 mg/L | I | 100 mg/L | 100 mg/L | I | I | I | I | 10 mg/L | I | –
9 | CC1CCc2c(N)c(F)cc3c(=O)c(C(=O)O)cn1c23 (stereo not shown) [8-amino compound, 8-amino-6,7-dihydro-9-fluoro-5-methyl-1-oxo-1H,5H-benzo[ij]quinolizine-2-carboxylic acid] | – | – | – | – | – | – | – | – | – | – | – | – | antimicrobial activity (in words) [1]: good antimicrobial activity against many species of microorganisms
10 | CC1CCc2c(Cl)ccc3c(=O)c(C(=O)O)cn1c23 (stereo not shown) [Example 8-Cl] | 10 mg/L | 100 mg/L | 1 mg/L | 1 mg/L | 10 mg/L | 10 mg/L | 10 mg/L | 100 mg/L | 10 mg/L | 100 mg/L | 1 mg/L | 1 mg/L | –
11 | CC1CCc2cc(Br)cc3c(=O)c(C(=O)O)cn1c23 (stereo not shown) [Example 9-Br] | – | I | 10 mg/L | 100 mg/L | – | – | – | I | 100 mg/L | 100 mg/L | 10 mg/L | 100 mg/L | –
12 | CC1CCc2cc(Cl)cc3c(=O)c(C(=O)O)cn1c23 (stereo not shown) [Example 9-Cl] | – | I | 1 mg/L | 10 mg/L | – | – | – | I | 100 mg/L | 100 mg/L | 1 mg/L | 10 mg/L | –
13 | CC1CCc2cc(F)cc3c(=O)c(C(=O)O)cn1c23 (stereo not shown) [Example 9-F] | 100 mg/L | 100 mg/L | 1 mg/L | 10 mg/L | 1 mg/L | 1 mg/L | 100 mg/L | 100 mg/L | 100 mg/L | 100 mg/L | 1 mg/L | 10 mg/L | –

Reference: patent US4556713A, “6-Fluoro-5-nitroquinaldine” (Riker Laboratories, Inc., priority 1984, dated 1985)
